Patent publication US6930131B2, “Aryl substituted 3-ethoxy phenyl trifluoromethane sulfonamides for the treatment of non-insulin dependent diabetes mellitus (NIDDM)” (Wyeth, priority 2002, dated 2005)

SMILES | melting point
COc1ccc(-c2ccc(COCCc3cccc(NS(=O)(=O)C(F)(F)F)c3)cc2)cc1 [Example 4, C,C,C-Trifluoro-N-{3-[2-(4′-methoxy-biphenyl-4-ylmethoxy)-ethyl]-phenyl}-methanesulfonamide] | 96 to 98 °C
O=S(=O)(Nc1cccc(CCOCc2ccc(-c3cccc(Cl)c3)cc2)c1)C(F)(F)F [Example 5, N-{3-[2-(3′-Chloro-biphenyl-4-ylmethoxy)-ethyl]-phenyl}-C,C,C-trifluoromethane sulfonamide] | 105 to 107 °C
O=S(=O)(Nc1cccc(CCOCc2ccc(-c3ccccn3)cc2)c1)C(F)(F)F [Example 8, C,C,C-Trifluoro-N-{3-[2-(4-pyridin-2-yl-benzyloxy)-ethyl]-phenyl}-methane sulfonamide] | 95 to 96 °C
O=S(=O)(Nc1cccc(CCOCc2ccc(-c3ccc(C(F)(F)F)cc3)cc2F)c1)C(F)(F)F [Example 14, C,C,C-Trifluoro-N-{3-[2-(3-fluoro-4′-trifluoromethyl-biphenyl-4-yl-methoxy)-ethyl]-phenyl}-methanesulfonamide] | 121 to 122 °C
O=S(=O)(Nc1cccc(CCOCc2ccc(-c3ccc(Cl)cc3Cl)cc2F)c1)C(F)(F)F [Example 15, N-{3-[2-(2′,4′-Dichloro-3-fluoro-biphenyl-4-ylmethoxy)-ethyl]-phenyl}-C,C,C-trifluoro-methanesulfonamide] | 65 to 66 °C
O=S(=O)(Nc1ccc(CCOCc2ccccc2-c2ccccc2)cc1)C(F)(F)F [Example 27, N-{4-[2-(Biphenyl-2-ylmethoxy)-ethyl]-phenyl}-C,C,C-trifluoromethanesulfonamide] | 79 to 81 °C
O=S(=O)(Nc1cccc(CCOCc2cc(-c3ccc(F)cc3)ccc2Cl)c1)C(F)(F)F [Example 29, N-{3-[2-(4-Chloro-4′-fluoro-biphenyl-3-ylmethoxy)-ethyl]-phenyl)-C,C,C-trifluoro-methanesulfonamide] | 80 to 82 °C

Second part, the compound after the results:

melting point | SMILES
65 to 67 °C | O=S(=O)(Nc1cccc(CCOCc2ccc(-c3ccc(F)cc3)cc2F)c1)C(F)(F)F [Example 10, N-{3-[2-(3,4′-Difluoro-biphenyl-4-ylmethoxy)-ethyl]-phenyl}-C,C,C-trifluoro-methanesulfonamide]
60 to 61 °C | Cc1cccc(-c2ccc(COCCc3cccc(NS(=O)(=O)C(F)(F)F)c3)c(F)c2)c1 [Example 16, C,C,C-Trifluoro-N-{3-[2-(3-fluoro-3′-methyl-biphenyl-4-yl-methoxy)-ethyl]-phenyl}-methanesulfonamide]
60 to 61 °C | O=S(=O)(Nc1cccc(CCOCc2ccc(-c3cccc(C(F)(F)F)c3)cc2F)c1)C(F)(F)F [Example 17, C,C,C-Trifluoro-N-{3-[2-(3-fluoro-3′-trifluoromethyl-biphenyl-4-yl-methoxy)-ethyl]-phenyl}-methanesulfonamide]
114 to 115 °C | O=S(=O)(Nc1cccc(CCOCc2ccc(-c3ccc(OC(F)(F)F)cc3)cc2F)c1)C(F)(F)F [Example 18, C,C,C-Trifluoro-N-{3-[2-(3-fluoro-4′-trifluoromethoxy-biphenyl-4-yl-methoxy)-ethyl]-phenyl}-methanesulfonamide]
80 to 82 °C | COc1cccc(-c2ccc(COCCc3cccc(NS(=O)(=O)C(F)(F)F)c3)c(F)c2)c1 [Example 20, C,C,C-Trifluoro-N-{3-[2-(3-fluoro-3′-methoxy-biphenyl-4-yl-methoxy)ethyl]-phenyl}-methanesulfonamide]
88 to 90 °C | COc1ccc(-c2cccc(COCCc3cccc(NS(=O)(=O)C(F)(F)F)c3)c2)cc1 [Example 28, C,C,C-Trifluoro-N-{3-[2-(4′-methoxy-biphenyl-3-ylmethoxy)-ethyl]-phenyl}-methanesulfonamide]
55 to 57 °C | COc1ccc(-c2ccc(F)cc2)cc1COCCc1cccc(NS(=O)(=O)C(F)(F)F)c1 [Example 30, N-{3-[2-(4′-Fluoro-4-methoxy-biphenyl-3-ylmethoxy)-ethyl]-phenyl)-C,C,C-trifluoro-methanesulfonamide]
